Measurements published in patent publication US9663764B2, “Generation of cardiomyocytes from human pluripotent stem cells” (Wisconsin Alumni Research Foundation, priority 2011, dated 2017).

Key:
Assay type in all cases: cell-based, human
[1] = test system: TCF/LEF promoter activity in H9-7TGP cells; experiment: 7TGP TCF/LEF promoter-reporter (GFP) assay after CH treatment
From the text: (§1) In order to probe the activation of canonical Wnt/β-catenin signaling during hPS cell specification to cardiomyocytes, the inventors generated a series of promoter-reporter cell lines in H1 and H9 hESC, and 19-9-11 human iPSC lines. These reporter lines, integrated with a lentiviral 7TGP vector, express GFP under control of a consensus TCF/LEF binding sequence promoter which reports β-catenin activation (FIG. 2A) (Fuerer and Nusse, PLoS One 5:e9370 (2010)). […] Approximately 50% of H9-7TGP cells expressed GFP at 4 days post-addition of 15 μM CH.

[2] = test system: H9 hESCs; experiment: Cardiac differentiation via EBs after CH pretreatment, contracting outgrowths; conditions: 0-8 μM CH for three days prior to EB formation; spontaneously-contracting outgrowths
Method: Cardiac Differentiation Via EBs: hPS cells were passaged onto MEFs (˜13,000 cells/cm^2) and cultured in hESC medium for 2 days followed by another 3 days in hESC medium supplemented with BIO (Sigma) or CHIR99021 (Selleck). To form EBs, hPS cell aggregates generated by […] were cultured in low-attachment plates overnight in RPMI plus 20% KnockOut serum replacer. The next day, the EBs were cultured in EB20 (RPMI plus 20% FBS) for 4 days in suspension. EBs were then plated onto 0.1% gelatin-coated 6-well culture plates at 50-100 EBs/well, and cultured in EB20 medium. After 10 days of differentiation, the FBS concentration was reduced to 2% EB2 (RPMI plus 2% FBS). The number of contracting EBs was visually assessed using a microscope with a 37° C. heated stage. […] Undifferentiated H9 hESCs were cultured in the presence of 0-8 μM CH for three days prior to EB formation. EBs were cultured in suspension for 4 days before transferring to 0.1% gelatin coated plates. […] The inventors also applied the GSK3 inhibitors CH and BIO to undifferentiated H9 hESCs three days prior to directed differentiation to cardiomyocytes via Activin A and BMP4.

[3] = test system: H9-7TGP cells; experiment: Immunofluorescent analysis of CH-induced H9-7TGP GFP+ cells; conditions: 12 μM CHIR99021 in mTeSR1 for 4 days
Method: as §1, with “Immunostaining: Cells were fixed with 4% paraformaldehyde for 15 min at room temperature and then stained with primary and secondary antibodies in PBS plus 0.4% Triton X-100 and 5% non-fat dry milk (Bio-Rad). Nuclei were stained with Gold Anti-fade Reagent with DAPI (Invitrogen). An epifluorescence microscope (Leica DM IRB) with a QImaging® Retiga 4000R camera was used for imaging analysis. In” for “In”

[4] = test system: BMP2, BMP4 and NODAL expression in 19-9-11 ishcat-2 cells; experiment: RT-PCR of TGFβ pathway genes during CH-induced differentiation; conditions: upon 12 μM CH treatment
Method: RT-PCR and Quantitative RT-PCR: Total RNA was prepared with the RNeasy mini kit (QIAGEN) and treated with DNase (QIAGEN). 1 μg RNA was reverse transcribed into cDNA via Oligo (dT) with Superscript III Reverse Transcriptase (Invitrogen). Real-time quantitative PCR was done in triplicate with iQ SYBR Green SuperMix (Bio-Rad). RT-PCR was done with Gotaq Master Mix (Promega) and then subjected to 2% agarose gel electrophoresis. ACTB was used as an endogenous control. To determine whether canonical Wnt signaling requires TGFβ superfamily signaling to induce cardiogenesis, the inventors quantified cTnT+ cell generation in 19-9-11 […]-2 cells when Activin A and BMP4 signaling antagonists were presented during the first 24 hr of cardiomyocyte induction with 12 μM CH. All samples were treated with dox at 48 hours. […] To further investigate the role of TGFβ superfamily signaling in Wnt pathway-mediated cardiogenesis the inventors assessed Smad1/5 and Smad2 phosphorylation, downstream of BMP4 and Activin A signaling respectively. As expected, substantial Smad1/5 and Smad2 phosphorylation was detected in cells that had been treated with Activin A and BMP4 (FIGS. 9B and 10A).

[5] = test system: H9 hESCs; experiment: Activin A/BMP4 directed cardiac differentiation with GSK3 inhibitor pretreatment, cTnT flow cytometry; conditions: GSK3 inhibitor (1 μM) 3 days prior to Activin A and BMP4; day 15; average
Method: Cardiac directed differentiation using Activin A and BMP4: hPS cells maintained on Matrigel® in mTeSR1 were dissociated into single cells with Accutase (Invitrogen) at 37° C. for 5 min and then seeded onto a Matrigel®-coated cell culture dish at 100,000 cell/cm^2 in mTeSR1 supplemented with 5 μM ROCK inhibitor (Y-27632, Stemgent) (day −5). Cells were cultured in mTeSR1, changed daily. At day 0, cells were treated with 100 ng/ml Activin A (R&D) in RPMI/B27-insulin. After 24 hr, the medium was changed to RPMI/B27-insulin supplemented with 5 ng/ml BMP4 (R&D) for another 4 days. At day 5, the medium was changed with RPMI/B27-insulin. At day 7 the cells were transferred to RPMI/B27, and medim changed every 3 days. When using GSK3 inhibitors to stimulate differentiation, cells were cultured in mTeSR1 containing BIO or CHIR99021 from day −3 to day 0.
Flow Cytometry: Cells were dissociated into single cells and then fixed with 1% paraformaldehyde for 20 min at room temperature and stained with primary and secondary antibodies in PBS plus 0.1% Triton X-100 and 0.5% BSA. For the cell proliferation assay, a 17-hour pulse of BrdU was performed to identify dividing cardiomyocytes (Zhang et al., Circ. Res. 104, e30-41 (2009)). Data were collected on a FACSCaliber flow cytometer (Beckton Dickinson) and analyzed using FlowJo.
Undifferentiated H9 hESCs were cultured in the presence of 0-8 μM CH for three days prior to EB formation. EBs were cultured in suspension for 4 days before transferring to 0.1% gelatin coated plates. […] The inventors also applied the GSK3 inhibitors CH and BIO to undifferentiated H9 hESCs three days prior to directed differentiation to cardiomyocytes via Activin A and BMP4.

Cc1c[nH]c(-c2cnc(NCCNc3ccc(C#N)cn3)nc2-c2ccc(Cl)cc2Cl)n1 [CH]
H9-7TGP cells expressing GFP ([1]; 15 μM CH, 4 days post-addition): Approximately 50% | TCF/LEF promoter activity ([1]; H9-7TGP reporter line, CH in mTeSR1 for 4 days): activated TCF/LEF promoter activity in a CH concentration-dependent manner | CH concentration at which efficiency of cardiomyocyte differentiation peaked [2]: 2 to 4 µM | Oct4, Isl1 and Nkx2.5 expression in CH-induced GFP+ cells [3]: did not express Oct4, but did express Isl1 and Nkx2.5 | NODAL expression [4]: transient upregulation | BMP2 and BMP4 gene expression ([4]; throughout differentiation): gradually upregulated | cTNT-labeled cells [5]: 50%
